One may read the inhibition as the relative decrease from the control value, in per cent.

The text below walks through data of ChEMBL document CHEMBL5442219.

What all share (settings): Compound concentration 10 µM
Test [1] has as its target T1, D(4) dopamine receptor (Homo sapiens) (UniProt P21917).
T1 sequence (whole entry): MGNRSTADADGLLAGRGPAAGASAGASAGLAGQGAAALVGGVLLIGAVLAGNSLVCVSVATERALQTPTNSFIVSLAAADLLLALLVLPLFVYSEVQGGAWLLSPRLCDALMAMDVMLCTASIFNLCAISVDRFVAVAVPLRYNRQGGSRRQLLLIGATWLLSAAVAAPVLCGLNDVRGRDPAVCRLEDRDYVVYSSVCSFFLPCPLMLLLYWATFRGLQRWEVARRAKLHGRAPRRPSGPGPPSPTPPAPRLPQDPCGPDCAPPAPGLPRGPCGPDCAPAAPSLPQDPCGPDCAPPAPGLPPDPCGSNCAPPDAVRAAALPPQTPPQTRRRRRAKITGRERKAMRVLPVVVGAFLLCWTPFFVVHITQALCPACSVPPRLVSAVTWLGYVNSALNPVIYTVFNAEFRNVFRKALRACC

Test [2] deals with Histamine H4 receptor (Homo sapiens) (UniProt Q9H3N8).
Histamine H4 receptor (Homo sapiens), sequence (Q9H3N8 whole entry): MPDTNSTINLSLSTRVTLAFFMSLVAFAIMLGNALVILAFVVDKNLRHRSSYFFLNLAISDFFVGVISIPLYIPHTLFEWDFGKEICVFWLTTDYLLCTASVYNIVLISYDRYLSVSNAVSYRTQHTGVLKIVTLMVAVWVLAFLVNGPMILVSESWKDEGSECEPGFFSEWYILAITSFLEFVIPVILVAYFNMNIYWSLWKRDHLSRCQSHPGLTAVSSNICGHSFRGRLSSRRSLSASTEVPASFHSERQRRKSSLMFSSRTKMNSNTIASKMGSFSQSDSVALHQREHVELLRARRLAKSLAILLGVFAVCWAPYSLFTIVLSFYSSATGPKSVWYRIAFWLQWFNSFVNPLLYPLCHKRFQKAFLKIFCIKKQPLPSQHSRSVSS
For test [3], the target named is Histamine H1 receptor (Homo sapiens) (UniProt P35367).
Histamine H1 receptor (Homo sapiens), sequence (P35367 whole entry): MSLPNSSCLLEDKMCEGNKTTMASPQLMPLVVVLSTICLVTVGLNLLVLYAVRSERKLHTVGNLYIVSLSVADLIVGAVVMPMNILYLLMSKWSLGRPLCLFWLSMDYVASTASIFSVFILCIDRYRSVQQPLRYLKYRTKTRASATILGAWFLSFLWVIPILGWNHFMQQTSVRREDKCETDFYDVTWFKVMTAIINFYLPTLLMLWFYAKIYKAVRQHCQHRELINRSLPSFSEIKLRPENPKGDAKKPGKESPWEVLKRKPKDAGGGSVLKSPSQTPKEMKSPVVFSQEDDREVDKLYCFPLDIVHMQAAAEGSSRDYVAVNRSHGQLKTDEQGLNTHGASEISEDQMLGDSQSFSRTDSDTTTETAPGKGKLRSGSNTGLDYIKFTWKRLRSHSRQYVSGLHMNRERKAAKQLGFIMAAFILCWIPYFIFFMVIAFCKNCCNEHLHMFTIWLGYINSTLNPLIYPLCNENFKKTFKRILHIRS
Test [4] concerns the target T2, Alpha-2B adrenergic receptor (Homo sapiens) (UniProt P18089).
T2 sequence (whole entry): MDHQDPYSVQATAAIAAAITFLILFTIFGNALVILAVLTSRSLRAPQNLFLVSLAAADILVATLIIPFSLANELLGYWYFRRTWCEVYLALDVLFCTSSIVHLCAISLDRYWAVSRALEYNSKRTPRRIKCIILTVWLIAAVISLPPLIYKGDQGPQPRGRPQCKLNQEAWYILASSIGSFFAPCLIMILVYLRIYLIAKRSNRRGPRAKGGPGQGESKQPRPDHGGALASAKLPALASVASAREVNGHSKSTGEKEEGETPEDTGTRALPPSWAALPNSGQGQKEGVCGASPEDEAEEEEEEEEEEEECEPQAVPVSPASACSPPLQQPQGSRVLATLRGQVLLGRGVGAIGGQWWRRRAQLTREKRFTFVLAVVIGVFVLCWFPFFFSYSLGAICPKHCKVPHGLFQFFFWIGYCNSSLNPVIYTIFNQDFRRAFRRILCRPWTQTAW

Test [5] has as its target Muscarinic acetylcholine receptor M3 (Homo sapiens) (UniProt P20309).
Test [6] addresses Sodium-dependent dopamine transporter (Homo sapiens) (UniProt Q01959).
Test [7] has as its target T3, 5-hydroxytryptamine receptor 1A (Homo sapiens) (UniProt P08908).
T3 sequence (whole entry): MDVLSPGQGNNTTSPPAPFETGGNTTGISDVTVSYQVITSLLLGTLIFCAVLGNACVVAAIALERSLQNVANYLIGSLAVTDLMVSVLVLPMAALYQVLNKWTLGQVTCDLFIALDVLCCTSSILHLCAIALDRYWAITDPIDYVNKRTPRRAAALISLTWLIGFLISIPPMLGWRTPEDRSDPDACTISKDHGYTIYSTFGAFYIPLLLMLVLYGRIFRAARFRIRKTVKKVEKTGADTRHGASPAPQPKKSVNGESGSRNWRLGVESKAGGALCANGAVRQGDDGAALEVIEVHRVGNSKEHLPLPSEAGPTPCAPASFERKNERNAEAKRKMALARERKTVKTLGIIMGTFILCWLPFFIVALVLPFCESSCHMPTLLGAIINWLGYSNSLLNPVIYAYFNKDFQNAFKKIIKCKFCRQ

Test [8] concerns the target 5-hydroxytryptamine receptor 2B (Homo sapiens) (UniProt P41595).
For test [9], the target named is T4, Alpha-1D adrenergic receptor (Homo sapiens) (UniProt P25100).
T4 sequence (whole entry): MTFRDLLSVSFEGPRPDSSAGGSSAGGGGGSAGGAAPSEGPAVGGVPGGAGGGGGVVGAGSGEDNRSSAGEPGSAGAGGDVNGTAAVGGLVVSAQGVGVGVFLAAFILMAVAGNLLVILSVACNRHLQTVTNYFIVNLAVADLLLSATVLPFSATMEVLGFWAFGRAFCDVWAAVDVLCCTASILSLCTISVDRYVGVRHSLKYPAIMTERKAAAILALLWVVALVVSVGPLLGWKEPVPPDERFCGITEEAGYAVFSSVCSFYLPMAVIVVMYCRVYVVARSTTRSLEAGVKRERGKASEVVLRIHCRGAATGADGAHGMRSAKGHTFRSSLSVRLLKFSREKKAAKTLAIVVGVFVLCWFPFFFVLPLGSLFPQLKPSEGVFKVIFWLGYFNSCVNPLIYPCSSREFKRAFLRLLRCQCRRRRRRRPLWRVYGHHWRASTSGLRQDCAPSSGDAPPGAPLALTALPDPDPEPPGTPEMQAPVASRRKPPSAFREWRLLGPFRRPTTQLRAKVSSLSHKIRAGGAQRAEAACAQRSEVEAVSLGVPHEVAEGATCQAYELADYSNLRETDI

In test [10] the target is 5-hydroxytryptamine receptor 5A (Homo sapiens) (UniProt P47898).
5-hydroxytryptamine receptor 5A (Homo sapiens), sequence (P47898 whole entry): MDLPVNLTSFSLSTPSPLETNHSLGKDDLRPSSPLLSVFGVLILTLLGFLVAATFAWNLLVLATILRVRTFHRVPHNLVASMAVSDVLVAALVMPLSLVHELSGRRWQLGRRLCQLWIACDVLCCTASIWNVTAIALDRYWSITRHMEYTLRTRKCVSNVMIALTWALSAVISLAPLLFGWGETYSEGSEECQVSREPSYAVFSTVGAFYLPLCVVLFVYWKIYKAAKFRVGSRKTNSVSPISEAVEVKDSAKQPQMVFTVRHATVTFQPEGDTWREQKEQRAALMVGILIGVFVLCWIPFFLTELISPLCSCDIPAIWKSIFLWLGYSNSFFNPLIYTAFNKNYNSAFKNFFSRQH
In test [11] the target is T5, Muscarinic acetylcholine receptor M4 (Homo sapiens) (UniProt P08173).
T5 sequence (whole entry): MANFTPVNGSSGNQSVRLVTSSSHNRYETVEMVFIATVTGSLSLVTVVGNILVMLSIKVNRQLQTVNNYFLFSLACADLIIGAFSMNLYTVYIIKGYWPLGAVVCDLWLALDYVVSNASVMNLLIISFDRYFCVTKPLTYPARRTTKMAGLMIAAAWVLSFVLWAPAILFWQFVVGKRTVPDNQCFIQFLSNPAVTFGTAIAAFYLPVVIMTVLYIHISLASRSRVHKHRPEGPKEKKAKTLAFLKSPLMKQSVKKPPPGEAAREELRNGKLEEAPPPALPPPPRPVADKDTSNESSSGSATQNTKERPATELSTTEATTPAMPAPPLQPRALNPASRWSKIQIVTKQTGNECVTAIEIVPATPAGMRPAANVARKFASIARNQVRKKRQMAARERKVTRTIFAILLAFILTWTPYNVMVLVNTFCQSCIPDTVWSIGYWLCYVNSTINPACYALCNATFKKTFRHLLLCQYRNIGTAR

The target of test [12] is D(3) dopamine receptor (Homo sapiens) (UniProt P35462).
D(3) dopamine receptor (Homo sapiens), sequence (P35462 whole entry): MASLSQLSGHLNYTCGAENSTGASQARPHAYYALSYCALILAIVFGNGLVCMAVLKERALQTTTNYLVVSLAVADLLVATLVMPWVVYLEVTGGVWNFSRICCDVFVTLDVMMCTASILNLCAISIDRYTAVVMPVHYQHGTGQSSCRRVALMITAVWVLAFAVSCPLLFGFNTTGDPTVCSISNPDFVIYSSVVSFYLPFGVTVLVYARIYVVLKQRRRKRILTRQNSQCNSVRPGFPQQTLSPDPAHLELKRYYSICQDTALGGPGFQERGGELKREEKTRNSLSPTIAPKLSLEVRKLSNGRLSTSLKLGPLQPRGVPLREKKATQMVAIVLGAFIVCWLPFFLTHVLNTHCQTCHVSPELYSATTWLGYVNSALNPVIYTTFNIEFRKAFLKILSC
Test [13] addresses Beta-2 adrenergic receptor (Homo sapiens) (UniProt P07550).
Test [14] addresses Sodium-dependent noradrenaline transporter (Homo sapiens) (UniProt P23975).

Sodium-dependent dopamine transporter (Homo sapiens), sequence (Q01959 whole entry): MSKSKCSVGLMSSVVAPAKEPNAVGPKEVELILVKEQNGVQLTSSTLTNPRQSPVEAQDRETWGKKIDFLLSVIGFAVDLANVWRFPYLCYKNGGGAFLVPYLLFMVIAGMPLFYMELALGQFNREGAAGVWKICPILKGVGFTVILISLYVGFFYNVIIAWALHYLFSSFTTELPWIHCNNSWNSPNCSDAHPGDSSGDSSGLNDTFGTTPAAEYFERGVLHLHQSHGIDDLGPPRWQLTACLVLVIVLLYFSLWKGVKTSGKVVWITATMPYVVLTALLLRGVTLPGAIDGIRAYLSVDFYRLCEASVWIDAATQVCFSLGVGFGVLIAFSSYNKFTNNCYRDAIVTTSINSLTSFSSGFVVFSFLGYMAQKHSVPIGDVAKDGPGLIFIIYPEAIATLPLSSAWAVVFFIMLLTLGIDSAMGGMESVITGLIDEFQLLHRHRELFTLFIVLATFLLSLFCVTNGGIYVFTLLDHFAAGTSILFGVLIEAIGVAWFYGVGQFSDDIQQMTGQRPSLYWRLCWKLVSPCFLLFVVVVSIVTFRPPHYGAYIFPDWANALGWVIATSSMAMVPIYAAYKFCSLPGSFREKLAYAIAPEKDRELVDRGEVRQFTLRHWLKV
Muscarinic acetylcholine receptor M3 (Homo sapiens), sequence (P20309 whole entry, looked up): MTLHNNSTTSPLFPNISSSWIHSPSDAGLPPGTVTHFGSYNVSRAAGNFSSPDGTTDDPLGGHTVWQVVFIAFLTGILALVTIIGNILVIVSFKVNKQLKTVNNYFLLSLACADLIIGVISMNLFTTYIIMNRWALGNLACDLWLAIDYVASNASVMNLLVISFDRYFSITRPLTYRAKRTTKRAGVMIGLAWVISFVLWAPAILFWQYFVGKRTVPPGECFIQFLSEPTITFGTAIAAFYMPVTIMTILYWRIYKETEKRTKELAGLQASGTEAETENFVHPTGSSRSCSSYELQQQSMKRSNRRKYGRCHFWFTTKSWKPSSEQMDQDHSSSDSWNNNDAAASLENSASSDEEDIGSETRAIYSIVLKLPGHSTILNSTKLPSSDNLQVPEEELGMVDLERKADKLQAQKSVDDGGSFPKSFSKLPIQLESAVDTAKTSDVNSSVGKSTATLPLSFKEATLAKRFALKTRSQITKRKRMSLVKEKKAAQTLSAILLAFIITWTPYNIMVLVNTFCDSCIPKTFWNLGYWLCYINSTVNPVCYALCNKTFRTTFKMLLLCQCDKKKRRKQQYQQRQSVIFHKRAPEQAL
Beta-2 adrenergic receptor (Homo sapiens), sequence (P07550 whole entry, looked up): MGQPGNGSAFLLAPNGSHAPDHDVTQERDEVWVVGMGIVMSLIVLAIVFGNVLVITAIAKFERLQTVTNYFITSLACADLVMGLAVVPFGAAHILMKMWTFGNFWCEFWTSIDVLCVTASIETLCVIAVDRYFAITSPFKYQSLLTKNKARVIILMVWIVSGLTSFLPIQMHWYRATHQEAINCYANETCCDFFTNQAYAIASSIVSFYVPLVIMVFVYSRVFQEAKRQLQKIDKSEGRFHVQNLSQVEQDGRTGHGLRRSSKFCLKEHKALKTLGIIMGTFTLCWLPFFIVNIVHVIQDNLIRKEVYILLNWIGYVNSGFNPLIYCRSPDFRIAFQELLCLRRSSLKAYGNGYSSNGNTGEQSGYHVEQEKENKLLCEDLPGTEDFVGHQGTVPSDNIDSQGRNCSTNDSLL
5-hydroxytryptamine receptor 2B (Homo sapiens), sequence (P41595 whole entry): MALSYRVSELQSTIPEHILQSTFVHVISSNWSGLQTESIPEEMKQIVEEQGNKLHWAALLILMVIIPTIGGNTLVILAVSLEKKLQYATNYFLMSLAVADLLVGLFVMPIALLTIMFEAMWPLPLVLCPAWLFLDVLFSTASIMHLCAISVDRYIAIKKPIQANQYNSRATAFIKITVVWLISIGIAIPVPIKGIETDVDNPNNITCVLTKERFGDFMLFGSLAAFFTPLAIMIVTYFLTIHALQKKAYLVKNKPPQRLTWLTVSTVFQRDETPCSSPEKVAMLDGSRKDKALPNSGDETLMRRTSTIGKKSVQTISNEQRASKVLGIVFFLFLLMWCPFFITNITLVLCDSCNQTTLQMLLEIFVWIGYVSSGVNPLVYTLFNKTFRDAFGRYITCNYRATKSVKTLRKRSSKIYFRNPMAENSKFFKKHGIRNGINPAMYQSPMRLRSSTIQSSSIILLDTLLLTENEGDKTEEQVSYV
Sodium-dependent noradrenaline transporter (Homo sapiens), sequence (P23975 whole entry): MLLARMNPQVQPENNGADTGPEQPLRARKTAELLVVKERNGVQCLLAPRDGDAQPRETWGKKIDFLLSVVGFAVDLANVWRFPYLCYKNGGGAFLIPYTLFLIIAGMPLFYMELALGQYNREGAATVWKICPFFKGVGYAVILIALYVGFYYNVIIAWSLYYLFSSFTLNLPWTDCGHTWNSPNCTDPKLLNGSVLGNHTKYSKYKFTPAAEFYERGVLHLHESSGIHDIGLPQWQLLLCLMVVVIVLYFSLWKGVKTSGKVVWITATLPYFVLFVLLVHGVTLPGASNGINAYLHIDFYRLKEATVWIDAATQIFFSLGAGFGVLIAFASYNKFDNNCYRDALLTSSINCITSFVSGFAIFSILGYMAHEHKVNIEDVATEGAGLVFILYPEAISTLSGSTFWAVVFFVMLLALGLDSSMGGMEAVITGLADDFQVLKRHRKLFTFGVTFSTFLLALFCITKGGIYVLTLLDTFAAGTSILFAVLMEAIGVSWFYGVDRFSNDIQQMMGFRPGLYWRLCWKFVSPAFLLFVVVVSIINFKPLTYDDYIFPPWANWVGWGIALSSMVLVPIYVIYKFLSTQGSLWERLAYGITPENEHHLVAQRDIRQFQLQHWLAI

Take `O=C(O)C1CN(Cc2ccc(OCc3ccc(Cl)c(Cl)c3)cc2)C1`: the inhibition is -0.79% in test [1]; -3.72% in test [2]; 86% in [3]; 35.4% in test [4]; -5.25% in test [5]; 31.9% in test [6]. Further, the inhibition in test [7] was 13.2%; in test [8], 10.2%; in test [9] it was -5.42%; in [10], 23.4%; in test [11], 29.6%; in [12] it was 39.5%.
Take `CC1=C2C[C@H]3[C@@H](CC=C4C[C@@H](O)CC[C@@]43C)[C@@H]2CC[C@]12O[C@@H]1C[C@H](C)CN[C@H]1[C@H]2C`: the inhibition in test [13] was 5.22%; in test [2], -2.19%; in test [3], 40.4%; in test [5], -6.3%; in test [7] it was 9.39%; in test [9], -8.81%. The values for the inhibition in test [11] and in [12] were -3.11% and 19.6%, respectively.
Consider `O=C1N/C(=N/c2ccccc2F)S/C1=C\c1ccc(C(=O)O)cc1`, for which the inhibition in test [1] was 79.2%; in test [13], 6.54%; in [2], -4.83%; in test [3], 42.9%; in [4], -7.72%; in [5] it was -5.5%. The inhibition in test [6] is 33.1%; in test [7], 2.18%; in [8], -3.68%; in test [14] it was 9.3%; in test [12], 5.3%.
Take `CC(C)Oc1ccccc1C(=O)Nc1ccccc1C(=O)Nc1cccc(S(=O)(=O)C(F)(F)F)c1`: the inhibition is 43% in test [1]; -8.68% in [13]; 2.1% in [3]; 13.1% in test [5]; 6.76% in test [7]; -2.68% in [11]. In test [12], the inhibition was 23.1%.
With `O=C(O)COc1cccc(CN(Cc2ccc(-n3cccn3)cc2)S(=O)(=O)c2cccnc2)c1`, the inhibition in test [1] is 4.77%; in test [13], -8.36%; in test [2], -9.76%; in test [3], 1.83%; in [4] it was -5.85%; in [5], 7.64%. Besides, the inhibition in [7] is -0.9%; in test [8], 5.26%; in [11] it was -2.13%; in [12], 5.78%.
As for `O=C(O)Cn1c(C(=O)Nc2nc(-c3ccccc3Cl)cs2)cc2ccccc21`, the inhibition was -9.74% in test [1]; -7.21% in test [13]; 13.6% in test [2]; -9.22% in test [3]; 2.63% in test [4]; 0.53% in test [5]. Also, the inhibition in test [6] was 47.6%; in test [7], -8.88%; in [8], 0.94%; in test [9] it was -3.75%; in test [10] it was 18.6%; in [12], 7.11%.
With `COc1cccc(-c2c(C)n(Cc3c(F)cccc3C(F)(F)F)c(=O)n(C[C@H](NCCCC(=O)O)c3ccccc3)c2=O)c1F`, the inhibition was 25.8% in test [1]; 9.07% in test [3]; -2.07% in [4]; -7.5% in [5]; -2.18% in [7]; -6.96% in test [8]. Besides, the inhibition in test [9] was -7.43%; in test [10], 35.8%; in test [11], 4.32%; in [12] it was 21.6%.
For `FC(F)(F)c1c(N2CCC(c3ccccc3)CC2)ccn2c(CC3CC3)nnc12`, the inhibition is -5.09% in test [13]; -1.74% in [2]; 33% in test [3]; -8.34% in test [5]; 54.2% in test [6]; -5.72% in test [7]. Besides, the inhibition was -9.2% in test [8], 31.6% in test [14], -3.82% in test [9] and 14.2% in [12].
Turning to `FC(F)(F)c1cccc(-c2noc(-c3cc(-c4ccccc4)c(C(F)(F)F)s3)n2)c1`, the inhibition in test [1] is -0.65%; in [3] it was 17%; in [5], -5.11%; in test [6], 17.8%; in [7] it was 2.88%; in test [8] it was 10.1%. Further, the inhibition is 1.55% in test [9], 18.8% in test [10] and -0.35% in test [11].
Take `CCC[C@H](Oc1cc(C)c(-n2cc(C(F)(F)F)cn2)c(C)c1)c1ccc(C(=O)NCCC(=O)O)cc1`: the inhibition in test [1] was -1.34%; in test [3], 7.56%; in [4] it was -4.35%; in [5], -0.42%; in [7], -2.47%; in test [10] it was 8.62%. In test [11], the inhibition was 3.44%.
As for `Cc1c(F)cccc1NC(=O)Nc1ccc(Cl)c(S(=O)(=O)[C@H]2CCCNC2)c1O`, the inhibition in test [1] was 6.5%; in test [13] it was 5.61%; in [3], 25.6%; in test [4], 3.18%; in test [5], 22.8%; in test [6], 14.9%. For the same compound, the inhibition in test [8] is 44.3%; in [10] it was 16.5%; in test [11], -3.99%; in test [12], 25.8%.
